Literature values, collected in patent EP4052553A1, “AGRICHEMICAL COMPOSITION FOR TREATING SEEDS AND USE THEREOF” (priority 2019, dated 2021).

Details: distilled water at 20°C
For `CCC(CC)Nc1c([N+](=O)[O-])cc(C)c(C)c1[N+](=O)[O-]` [Pendimethalin], the aqueous solubility is given as 0.26 ppm.
In the case of `CS(=O)(=O)c1ccc(C(=O)C2=C(Sc3ccccc3)C3CCC(C3)C2=O)c(Cl)c1` (stereo not drawn) [benzobicyclon], the aqueous solubility is listed as 0.052 ppm.
In the case of `Cc1ccc(C(=O)COc2c(C(=O)c3ccc(Cl)c(C)c3Cl)c(C)nn2C)cc1` [benzofenap], the aqueous solubility is given as 0.12 ppm.
For `CCOC(=O)c1ccccc1S(=O)(=O)NC(=O)Nc1nc(Cl)cc(OC)n1` [chlorimuron-ethyl], the aqueous solubility is given as 8.6 ppm.
In the case of `COc1cc(OC)nc(NC(=O)NS(=O)(=O)Nc2ccccc2C(=O)C2CC2)n1` [cyclosulfamuron], the aqueous solubility is given as 0.34 ppm.
In the case of `COc1ccc(-n2c(=O)c(C(=O)C3C(=O)CCCC3=O)nc3c(Cl)cccc32)cc1` [fenquinotrione], the aqueous solubility is given as 17 ppm.
In the case of `COC(=O)c1c(Cl)nn(C)c1S(=O)(=O)NC(=O)Nc1nc(OC)cc(OC)n1` [halosulfuron-methyl], the aqueous solubility is listed as 10.2 ppm.
For `C[C@@H](Oc1ccc(Oc2nc3ccc(Cl)cc3o2)cc1)C(=O)N(C)c1ccccc1F` [metamifop], the aqueous solubility is listed as 0.69 ppm.
For `CC(C)=C1OC(=O)N(c2cc(OC3CCCC3)c(Cl)cc2F)C1=O` [pentoxazone], the aqueous solubility is given as 0.22 ppm.
For `CCCOCCN(C(=O)CCl)c1c(CC)cccc1CC` [pretilachlor], the aqueous solubility is given as 74 ppm.
For `CCCc1ccc2nc(Cl)c(S(=O)(=O)NC(=O)Nc3nc(OC)cc(OC)n3)n2n1` [propyrisulfuron], the aqueous solubility is listed as 0.98 ppm.
For `C#CCN(C)c1c(C#N)cnn1-c1nn2c(c1Cl)CCCC2` [pyraclonil], the aqueous solubility is listed as 50.1 ppm.
In the case of `CCOC(=O)c1cnn(C)c1S(=O)(=O)NC(=O)Nc1nc(OC)cc(OC)n1` [pyrazosulfuron-ethyl], the aqueous solubility is given as 9.8 ppm.
For `COc1cc(OC)nc(Oc2cccc(Oc3nc(OC)cc(OC)n3)c2C(=O)ON=C(c2ccccc2)c2ccccc2)n1` [pyribenzoxim], the aqueous solubility is given as 3.5 ppm.
In the case of `COc1cc(OC)nc(Sc2cccc3c2C(=O)OC3C)n1` (stereo not drawn) [pyriftalid], the aqueous solubility is given as 1.8 ppm.
In the case of `CO/N=C(/C)c1cccc(Oc2nc(OC)cc(OC)n2)c1C(=O)OC` [pyriminobac-methyl], the aqueous solubility is given as 9.3 ppm.
In the case of `COCc1cccc(C(O)c2nc(OC)cc(OC)n2)c1NS(=O)(=O)C(F)F` (stereo not drawn) [pyrimisulfan], the aqueous solubility is given as 87 ppm.
In the case of `COc1nc(OC)nc(C(=O)c2cccc(F)c2N(C)S(=O)(=O)C(F)F)n1` [triafamone], the aqueous solubility is given as 41 ppm.
